T1: α-NAGA mutant (Homo sapiens, UniProt P17050, A191L/S188E)
T1 sequence (P17050 with tags, fused parts or gaps S188E/A191L): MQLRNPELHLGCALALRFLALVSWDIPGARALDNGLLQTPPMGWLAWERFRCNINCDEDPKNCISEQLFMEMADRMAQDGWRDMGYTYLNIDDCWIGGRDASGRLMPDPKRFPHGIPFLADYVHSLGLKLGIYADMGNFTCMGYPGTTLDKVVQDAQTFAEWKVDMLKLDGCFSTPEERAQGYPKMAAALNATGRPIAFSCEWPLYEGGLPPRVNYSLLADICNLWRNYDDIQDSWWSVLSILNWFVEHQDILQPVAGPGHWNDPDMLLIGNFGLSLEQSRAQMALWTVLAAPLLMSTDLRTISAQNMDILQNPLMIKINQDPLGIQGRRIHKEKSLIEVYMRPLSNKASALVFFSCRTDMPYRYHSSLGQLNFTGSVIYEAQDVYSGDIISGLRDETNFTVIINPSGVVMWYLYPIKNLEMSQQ

T2: α-NAGA mutant (SEQ ID NO:8) (Homo sapiens, UniProt P17050, A191L/S188E)
T2 sequence (P17050 with tags, fused parts or gaps S188E/A191L): T1 sequence (P17050 with tags, fused parts or gaps S188E/A191L)

B1: α-NAGA mutant: mutant human α-N-acetylgalactosaminidase, serine 188 to glutamic acid and alanine 191 to leucine, having α-galactosidase activity (SEQ ID NO:8 used) (protein)
chain: T1 sequence (P17050 with tags, fused parts or gaps S188E/A191L)

Columns and labels:
α-NAGA mutant [1] = target: T1, α-NAGA mutant; test: Screening of inhibitor (2): inhibition of enzyme activity of α-NAGA mutant; type: biochemical; conditions: 0.1, 1, or 10 μM compound, pH 4.6, 37° C., 30 minutes; FIG. 1
Description: The second screening was carried out as follows: DGJ, GBS, N-C-DGJ, N-DGJ, or N-HE-DGJ dissolved in purified water or DMSO was added to 25 ng of an α-NAGA mutant and 4 mM 4-methylumbelliferylα-D-galactopyranoside dissolved in 0.1 M phosphate-citrate buffer (pH 4.6) such that a concentration of DGJ, GBS, N-C-DGJ, N-DGJ, or N-HE-DGJ became 0.1, 1, or 10 μM, and the mixture thus obtained was caused to react at 37° C. for 30 minutes (the total amount was 50 μl). After the reaction was finished, 950 μl of 0.2 M glycine buffer (pH 10.7) was added to stop the reaction. Then, released 4-methylumbelliferone was measured at an excitation wavelength of 355 nm and at a fluorescence wavelength of 460 nm with use of Wallac 1420 ARVO MX Multilabel Counter. Remaining enzyme activity was calculated based on the assumption that an enzyme activity value obtained in a case where purified water or DMSO is added instead of the inhibitor candidate compound is 100%. FIG. 1 is a view illustrating inhibition of enzyme activity of an α-NAGA mutant by DGJ.

α-NAGA mutant [2] = target: T1, α-NAGA mutant; test: Calculation of inhibition constant Ki (Lineweaver-Burk plot); type: biochemical; conditions: substrate 1-8 mM; DGJ 100-400 nM, GBS 200-800 nM; pH 4.6; FIG. 2
Description: Enzymatic analysis was carried out by using, as a reaction liquid, 50 ng of an α-NAGA mutant and 0.1 M phosphate-citrate buffer (pH 4.6) in which a 4-methylumbelliferylα-D-galactopyranoside substrate was dissolved at any of concentrations (1, 2, 4, 6, and 8 mM) (the total amount was 50 μl). In measuring inhibitory activity, reaction was carried out with a reaction liquid which contained DGJ at a concentration of 100, 200, or 400 nM or GBS at a concentration of 200, 400, or 800 nM. After the reaction was carried out at 37° C. for 10 minutes, 950 μl of 0.2 M glycine buffer (pH 10.7) was added to stop the reaction. Then, released 4-methylumbelliferone was measured at an excitation wavelength of 355 nm and at a fluorescence wavelength of 460 nm with use of Wallac 1420 ARVO MX Multilabel Counter. From these values, a Lineweaver-Burk plot was prepared and an inhibition constant Ki was calculated from slopes in the plot which correspond to respective concentrations of the inhibitor.

[3] = target: T2, α-NAGA mutant (SEQ ID NO:8); test: Screening of inhibitor (1): remaining enzyme activity of α-NAGA mutant with 4-methylumbelliferyl α-D-galactopyranoside; type: biochemical; conditions: 400 μM compound, pH 4.6, 37° C., 30 minutes
Description: The screening of inhibitor was carried out as follows: An inhibitor candidate compound dissolved in purified water or DMSO was added to 20 ng of an α-NAGA mutant (SEQ ID NO:8) and 4 mM 4-methylumbelliferylα-D-galactopyranoside dissolved in 0.1 M phosphate-citrate buffer (pH 4.6) such that a concentration of the inhibitor candidate compound became 0.8, 1, or 400 μM, and the mixture thus obtained was caused to react at 37° C. for 30 minutes (the total amount was 50 μl). After the reaction, 950 μl of 0.2 M glycine buffer (pH 10.7) was added to stop the reaction. Then, released 4-methylumbelliferone was measured at an excitation wavelength of 355 nm and at a fluorescence wavelength of 460 nm with use of Wallac 1420 ARVO MX Multilabel Counter. Remaining enzyme activity was calculated based on the assumption that an enzyme activity value obtained in a case where purified water or DMSO is added instead of the inhibitor candidate compound is 100%.

[4] = system: Fabry disease model mouse; conditions: Fabry disease model mouse to which the α-NAGA mutant has been administered; cited from earlier work

Molecule | inhibition of enzyme activity of an α-NAGA mutant (remaining enzyme activity) (α-NAGA mutant [1]) | inhibition pattern from inhibition constant Ki (α-NAGA mutant [2]) | inhibition effect on α-NAGA mutant (remaining enzyme activity) [3] | degradation of Gb3 and Lyso-Gb3 accumulated in organs [4]
O=S(=O)(O)C1NC(CO)C(O)C(O)C1O (stereo not shown) [GBS, galactostatin bisulfite] | had the effect of inhibiting activity of an α-NAGA mutant | inhibitory activity by competitive inhibition | the inhibition effect was seen | 
B1 |  |  |  | Gb3 and Lyso-Gb3 which are accumulated in organs are degraded
